Here are results for four compounds from US20250170121A1, “ISOQUINOLINONE COMPOUND, AND PREPARATION METHOD AND USE THEREFOR” (FUDAN UNIVERSITY, priority 2022, published 2025).

For test [1], the system named is MCP-1 secretion in THP-1 cells. Briefly: MCP-1 secretion in LPS-stimulated THP-1 monocyte-derived macrophages (ELISA). Type of test: cell-based. As to conditions: FIG. 2; for secretion of inflammatory factor MCP-1 in THP-1 mononuclear macrophages: 25 μM, 10 μM and 5 μM, 18 h incubation, 100 ng/ml LPS 6 h; for MCP-1 reducing activity compared with BMS309403 and RO6806051: THP-1 macrophages, LPS. The text has this: In FIG. 2A to FIG. 2C, the vertical axis represents the amount (ng) of MCP-1 contained in each mg of cell protein: in FIG. 2D, the vertical axis represents the relative concentration of MCP-1 (ng/mg cellular protein % LPS). Wherein, Control represents blank control treatment, LPS represents lipopolysaccharide treatment, BMS309403 represents inhibitor positive control treatment, RO6806051 (RO) represents lead compound treatment, and Y2, Y3, Y15, Y16 and Y18 represent treatments with compounds Y2, Y3, Y15, Y16 and Y18 prepared in the present invention, respectively.
(§1) Effects of the compounds on monocyte chemoattractant factor-1 (MCP-1) and interleukin-6 (IL-6) in THP-1 monocyte-derived macrophage.
(§2) First, monocytic cell line THP-1 in logarithmic growth phase was plated on a 96-well plate at a cell density of 5*10^5/ml; then 100 nM phorbol myristate ester (PMA) was added to induce the cells for 24 hours to differentiate into macrophages; then the cells were washed once or twice with phosphate buffered saline (PBS), and different concentrations of compounds (5, 10, 25 μM) were added for incubation for 18 hours; finally, after 6 hours of stimulation with 100 ng/ml lipopolysaccharide (LPS), the supernatant was collected and diluted to a certain multiple and the contents of MCP-1 and IL-6 were detected using enzyme-linked immunosorbent assay (ELISA), and cell protein was collected and the protein concentration was measured by BCA method for calibration.
For orientation: In an ELISA, binding on a coated surface is turned into a signal by an enzyme label.

A further test has as its system 3T3-L1 cells. Description: Lipolysis inhibition in differentiated mature 3T3-L1 adipocytes (supernatant glycerol, forskolin stimulation). As to conditions: 80 μM compound, 24 h incubation, 20 μM forskolin 2 h; FIG. 1. The test is classed as cell-based. The method, then: In this example, the lipolysis inhibitory activity of the compounds prepared in the present invention on differentiated mature 3T3-L1 preadipocytes was measured.
5 In adipocytes, FABP4 plays the role of a fatty acid chaperone, and gene knockout or drug inhibition of FABP4 can be used to inhibit lipolysis and promote lipid production in adipocytes. Therefore, the lipolysis experiment can be used as a confirmation indicator of the FABP4 inhibitory activity of the compound. In this experiment, the lipolysis activity of the compounds was evaluated by measuring the effect of the compounds prepared in the present 10 invention on the glycerol content of the supernatant of mature adipocytes.
Experimental materials: 3T3-L1 preadipocytes; calf serum, fetal bovine serum, high glucose H-DMEM culture medium, 3-isobutyl-1-methylxanthine (IBMX), dexamethasone, insulin, Forskolin, glycerol determination kit, BCA protein concentration determination kit.
1. 3T3-L1 preadipocytes were inoculated on culture plates and cultured in high-glucose DMEM containing 10% calf serum in a 37° C., 5% CO2 incubator;
2. After the cells were fully grown, contact inhibition was performed for two days;
3. […]
6. The cell supernatant was collected to measure the glycerol content, the intracellular protein concentration was measured by BCA method for calibration, and finally Graphpad Prism was used to analyze the results.

Test [2] deals with IL-6 secretion in THP-1 cells. Briefly: IL-6 secretion in LPS-stimulated THP-1 monocyte-derived macrophages (ELISA). The note with it: FIG. 3. Type of test: cell-based.
Source text: In FIG. 3, the vertical axis represents the amount (ng) of MCP-1 contained in each mg of cell protein. Wherein, Control (Con) represents blank control treatment, LPS represents lipopolysaccharide treatment, BMS309403 represents inhibitor positive control treatment, RO6806051 (RO) represents lead compound treatment, and Y2, Y3, Y15, Y16 and Y18 represent treatments with compounds Y2, Y3, Y15, Y16 and Y18 prepared in the present invention, respectively.
as §1, §2

The target in the next test is FABP5 (Homo sapiens, UniProt Q01469). Description: FABP5 inhibition rate, ANS substrate competition method (illustrated by the FABP4 system). The test is classed as binding. The note with it: compound 25 μM.
Chain of FABP5 (Q01469 whole entry): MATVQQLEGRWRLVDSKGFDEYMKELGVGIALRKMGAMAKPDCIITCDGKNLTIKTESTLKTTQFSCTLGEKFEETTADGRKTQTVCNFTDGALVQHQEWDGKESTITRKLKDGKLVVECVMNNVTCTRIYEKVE
For a further test, the target named is FABP3 (Homo sapiens, UniProt P05413). Briefly: FABP3 inhibition rate, ANS substrate competition method (illustrated by the FABP4 system). Type of test: binding. The note with it: compound 25 μM. The text has this: (§3) Considering that inhibition of FABP3 would cause myocardial function damage and bring potential safety issues, we tested the inhibitory activity of some compounds on FABP3. The activity test is illustrated by the example of the FABP4 activity test system as below.
Chain of FABP3 (P05413 whole entry): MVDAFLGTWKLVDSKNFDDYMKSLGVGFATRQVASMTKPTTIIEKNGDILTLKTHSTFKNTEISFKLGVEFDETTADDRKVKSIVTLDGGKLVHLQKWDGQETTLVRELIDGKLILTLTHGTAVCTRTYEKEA
(§4) Experimental principle and method: Once the free non-covalent fluorescent probe ANS binds to FABP4, the ANS fluorescence intensity will increase and its spectrum will be blue shifted. In this experiment, the inhibitory effect of the compound on FABP4 was evaluated by measuring the change in the ANS fluorescence signal value. For the FABP4 inhibitory activity test, the ANS substrate competition method was used, and we used the method of Kane and Bernlohr (E. Marr, M. Tardie, M. Carty, T. Brown Phillips, I. K. Wang, W. Soeller, X. Qiu, G. Karam, Expression, purification, crystallization and structure of human adipocyte lipid-binding protein (aP2). Acta Crystallogr., Sect. F: Struct. Biol. Cryst. Commun. 62 (2006) 1058-1060.). Human FABP4 with a His tag was expressed in the BL21 (DE3) strain and then purified using a Ni column with a His tag to generate the protein. In the detection system, the concentration of 1,8-ANS substrate was 10 μM, the final concentration of FABP4 was 10 μM, and then the compound prepared by the present invention was added at the required concentration for incubation for 3 minutes, and finally the fluorescence signal was detected at an excitation wavelength (EX) of 370 nm/emission wavelength (EM) of 470 nm. The inhibition rate (%) of the test sample on FABP4 was calculated according to the fluorescence absorption value of the system. The inhibition rate (%) was calculated according to the following equation: […]
(§5) FX represents the fluorescence value (fluorescence, F) of the system measured in the presence of compound x;
(§6) Fbackground represents the fluorescence value of the fluorescent substrate ANS;
(§7) F0% represents the fluorescence value of the system when the inhibition rate is 0%, that is, when no compound was added.

The next test addresses T1, Human FABP4 (Homo sapiens, UniProt P15090).
T1 construct: His tag; made in house; host or cells: E. coli BL21 (DE3)
Briefly: FABP4 inhibition rate, ANS substrate competition (fluorescence) method. The test is classed as binding. The note with it: compound 25 μM; 10 μM 1,8-ANS, 10 μM FABP4.
Source text: as §3, §4, §5, §6, §7

The next test concerns prostate cancer cells. The note with it: background statement; cited from earlier work.

T1 sequence (P15090 whole entry): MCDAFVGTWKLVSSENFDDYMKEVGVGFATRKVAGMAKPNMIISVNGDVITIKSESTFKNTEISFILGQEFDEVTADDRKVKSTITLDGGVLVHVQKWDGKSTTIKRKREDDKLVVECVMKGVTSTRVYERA

By inhibition is commonly meant the change of the read-out against control, counted positive when it falls. Low readings indicate a response near the control, high ones a response far below the control. For `O=C(O)c1c(-c2ccccc2)c2cc(Cl)ccc2c(=O)n1CC1CCCCC1` [Compound Y2, 6-Chloro-2-(cyclohexylmethyl)-1-oxo-4-phenyl-1,2-dihydroisoquinoline-3-carboxylic Acid], the “secretion of inflammatory factor MCP-1 in THP-1 mononuclear macrophages” value (shortened to “secretion … in THP-1 mononuclear macrophages”) in test [1] is “could reduce the secretion of inflammatory factor MCP-1”. In test [1], the “MCP-1 reducing activity compared with BMS309403 and RO6806051” value is “better than those of the positive control FABP4 inhibitor BMS309403 and the lead compound RO6806051”. For the same compound, in the test on 3T3-L1 cells, the “glycerol content of the supernatant under FSK (forskolin) stimulation” value is “significantly reduce the glycerol content”. Also, the “IL-6 secretion, tendency (no concentration stated)” value in test [2] is “tendency to reduce IL-6 secretion but with no statistical difference”. The inhibition at 25 µM at FABP5 was determined as 73%; on FABP3, 48%; at Human FABP4 it was 93%.
As for `CCc1c(-c2ccccc2)c(-c2ccccc2)nn1-c1ccccc1-c1cccc(OCC(=O)O)c1` [BMS309403], the “effect on prostate cancer cell proliferation, metastasis and apoptosis” value with prostate cancer cells is “inhibit cell proliferation and metastasis and promote cell apoptosis”.
With `O=C(O)c1c(-c2ccccc2)c2cc(Cl)ccc2c(=O)n1C1CCCC1` [Compound Y3, 6-Chloro-2-cyclopentyl-1-oxo-4-phenyl-1,2-dihydroisoquinoline-3-carboxylic Acid], in test [1], the “secretion … in THP-1 mononuclear macrophages” value was “could reduce the secretion of inflammatory factor MCP-1”. The “MCP-1 reducing activity compared with BMS309403 and RO6806051” value in test [1] was “better than those of the positive control FABP4 inhibitor BMS309403 and the lead compound RO6806051”. In addition, in the test on 3T3-L1 cells, the “glycerol content of the supernatant under FSK (forskolin) stimulation” value is “significantly reduce the glycerol content”. In test [2], the “IL-6 secretion, tendency (no concentration stated)” value is recorded as “tendency to reduce IL-6 secretion but with no statistical difference”. For the same compound, the inhibition at 25 µM on FABP5 is 68%; at FABP3, 36%; on Human FABP4, 93%.
For the compound `O=C(O)c1c(-c2ccc(F)cc2)c2cc(Cl)ccc2c(=O)n1C1CCCC1` [Compound Y15, 6-Chloro-2-cyclopentyl-4-(4-fluorophenyl)-1-oxo-1,2-dihydroisoquinoline-3-carboxylic Acid], the “secretion … in THP-1 mononuclear macrophages” value in test [1] is “could reduce the secretion of inflammatory factor MCP-1”. Moreover, the “IL-6 secretion, tendency (no concentration stated)” value in test [2] was “tendency to reduce IL-6 secretion but with no statistical difference”. Also, the inhibition at 25 µM on FABP5 was found to be 52%; on FABP3, 27%; on Human FABP4 it was 91%.
